Laboratory results taken from patent US10752588B2 (The Broad Institute, Inc., priority 2014, dated 2020).

Columns and labels:
human D2R/β-arrestin [1] = molecular target: T1, human D2R/β-arrestin (Homo sapiens (Human), UniProt P14416); test: β-Arrestin agonist assay (PathHunter); assay type: cell-based; conditions: CHO-K1 cell line expressing human D2R/β-arrestin
Description: (§1) The assays can be performed using proper detection reagents either prepared using routine methods known in the art or commercially available (e.g., PathHunter® β-Arrestin Detecting Kit (DiscoveRX)). Cells are grown to the necessary confluence and then detached. The cells are then centrifuged, washed, resuspended, and seeded into a container (e.g., 384-well plate). The cells are incubated (e.g., at 37° C., 5% CO2) for the appropriate period of time (e.g., 24 hours), before various compounds (e.g., a compound of the invention or a control compound) are added to the cells. After incubation of the cells with the compounds, detection reagents (e.g., a buffer containing Emerald II: Galactor-Star as provided DiscoveRX) are added to the cells. The read-out (e.g., luminescence, or fluorescence) is detected using standard equipment.
The detection reagent (9.6 μL, Buffer:Emerald II:Galactor-Star in a 19:5:1 ratio, i.e., 14.06 mL:3.7 mL:0.74 mL=18.5 mL) was then added to the agonist plates.

human D2R/β-arrestin [2] = molecular target: T1, human D2R/β-arrestin; test: cell-based; conditions: β-arrestin Antagonist, CHO-K1 cell line expressing human D2R/β-arrestin; quinpirole used as agonist
Description: (§2) The detection reagents are then added, and the read-out is detected.
(§3) Cells were prepared for assays by growing cultures for up to 2 weeks (from about 6-20 passages). A vial of frozen cells was thawed in a water bath held at 37° C. The cells were then transferred into a 50 ml tube with 10 ml growth media. The vial was rinsed with growth media and the contents transferred to the 50 ml tube. The 50 ml tube was centrifuged at 1200 rpm for 5 minutes at room temperature. […] When the cells reached about 90% confluence (approximately 3 days between passages), the cells were passaged and used for either the agonist or antagonist assays as described below.
The cells were prepared for β-arrestin assays as described above. The assays were performed using a PathHunter® β-Arrestin Detecting Kit (DiscoveRX). The cells were grown on 225 mm dishes, then washed once with 1×PBS (Cellgro), followed by digestion with 2.5 ml 1× Detachment reagent (DRX 92-0009) for approximately 2 minutes.

human D2R/β-arrestin [3] = molecular target: T1, human D2R/β-arrestin; test: cell-based; conditions: cAMP Antagonist, CHO-K1 cell line expressing human D2R/β-arrestin; quinpirole used as agonist
Description: as §2, §3
The cells were prepared for Gi/cAMP assays as described above. The assays were performed using a PE Lance Ultra cAMP kit (TRF0263). The cells were grown on 225 mm dishes, then washed once with 1×PBS (Cellgro) before digestion with 2.5 ml 1× Detachment reagent (DRX 92-0009) for about 2 minutes. PBS (20 ml) was then added to the plate, and the cells were transferred to a 50 ml centrifuge tube, and centrifuged at room temperature using BD Dynac III, at 1200 rpm for 5 minutes. […] The plates were then incubated at room temperature for about 30 minutes before addition of Eu-cAMP tracer solution (100, PerkinElmer) and then ULight-anti-cAMP solution (100) to each well.

human D2R/β-arrestin [4] = molecular target: T1, human D2R/β-arrestin; test: Gi/cAMP agonist assay (Lance Ultra cAMP, Forskolin); assay type: cell-based; conditions: CHO-K1 cell line expressing human D2R/β-arrestin
Description: as §1, with “PE Lance Ultra cAMP kit (TRF0263)).” for “PathHunter® β-Arrestin Detecting Kit (DiscoveRX)).”, “Afterwards, cAMP inducing agents (e.g., Forskolin) are added to and incubated with” for “After incubation of”, “before” for “with the compounds,”, “cAMP antibody, such” for “buffer containing Emerald II: Galactor-Star”, “ULight-anti-cAMP solution)” for “provided DiscoveRX)”, “Read-out” for “The read-out”
Compounds were pin-transferred (100 nL) to the cells, and incubated for 10 min. at 37° C. […] Eu-cAMP tracer solution (100, PerkinElmer, […] in 17.64 ml kit buffer) and ULight-anti-cAMP solution (100, 120 μL antibody in 17.88 ml kit buffer) was then added to each well.

T1 sequence (P14416 whole entry): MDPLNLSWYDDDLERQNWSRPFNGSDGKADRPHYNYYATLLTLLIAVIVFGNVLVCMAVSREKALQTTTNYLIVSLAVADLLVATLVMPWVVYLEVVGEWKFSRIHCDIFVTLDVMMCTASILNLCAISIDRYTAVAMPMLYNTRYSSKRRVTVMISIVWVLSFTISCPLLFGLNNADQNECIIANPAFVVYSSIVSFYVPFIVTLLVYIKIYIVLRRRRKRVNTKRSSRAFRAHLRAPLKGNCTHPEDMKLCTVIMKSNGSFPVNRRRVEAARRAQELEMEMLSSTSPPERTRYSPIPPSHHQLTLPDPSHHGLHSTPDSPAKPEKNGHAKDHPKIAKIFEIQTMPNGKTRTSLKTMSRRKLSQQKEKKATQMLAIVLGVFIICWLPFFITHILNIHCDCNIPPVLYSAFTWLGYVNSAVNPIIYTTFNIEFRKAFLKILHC

Compound	EC50 (human D2R/β-arrestin [1]) [µM]	IC50 (human D2R/β-arrestin [2]) [µM]	IC50 (human D2R/β-arrestin [3]) [µM]	EC50 (human D2R/β-arrestin [4]) [µM]
COc1cccc(C(NC(=O)C2CCN(CCOc3cc(F)ccc3F)CC2)c2ccccn2)c1 (stereo not drawn) [Compound 90, 1-(2-(2,5-difluorophenoxy)ethyl)-N-((3-methoxyphenyl)(pyridin-2-yl)methyl) piperidine-4-carboxamide]	> 30	1 to 10	1 to 10	1 to 10
CN(CC1CCN(CCOc2ccccc2F)CC1)C(c1ccc2c(c1)OCO2)c1ccccn1 (stereo not drawn) [Compound 138, 1-(benzo[d][1,3]dioxol-5-yl)-N-((1-(2-(2-fluorophenoxy)ethyl)piperidin-4-yl)methyl)-N-methyl-1-(pyridin-2-yl)methanamine]	> 30	0.1 to 1	> 30	0.1 to 1
Fc1ccc(F)c(OCCN2CCC(CNC(c3ccc(Cl)cc3)c3ccccn3)CC2)c1 (single isomer, unassigned) [Compound 89b, 1-(4-chlorophenyl)-N-((1-(2-(2,5-difluorophenoxy)ethyl)piperidin-4-yl)methyl)-1-(pyridin-2-yl)methanamine]	> 30	1 to 10	10 to 30	0.1 to 1
COc1cccc(C(NC(=O)C2CCN(CCOc3ccc(F)cc3F)CC2)c2ccccn2)c1 (stereo not drawn) [Compound 145, 1-(2-(2,4-difluorophenoxy)ethyl)-N-((3-methoxyphenyl)(pyridin-2-yl)methyl)piperidine-4-carboxamide]	> 30	1 to 10	1 to 10	10 to 30
CC(C1CCN(CCOc2ccccc2)CC1)N(C)C(c1ccc(Cl)cc1)c1ccccn1 (single isomer, unassigned) [Compound 97c, N-((4-chlorophenyl)(pyridin-2-yl)methyl)-N-methyl-1-(1-(2-phenoxyethyl)piperidin-4-yl)ethan-1-amine]	> 30	< 0.1	< 0.1	> 30
O=C(NC(c1ccc(Cl)cc1)c1ccccn1)C1CCN(CCOc2cccc(F)c2)CC1 (stereo not drawn) [Compound 4]	> 30	0.1 to 1	> 30	< 0.1
COc1cccc(C(c2ccccn2)N(C)CC2CCN(CCOc3ccccc3)CC2)c1 (stereo not drawn) [Compound 76, 1-(3-methoxyphenyl)-N-methyl-N-((1-(2-phenoxyethyl)piperidin-4-yl)methyl)-1-(pyridin-2-yl)methanamine]	> 30	1 to 10	10 to 30	< 0.1
Fc1ccccc1OCCN1CCC(CNC(c2ccc(Cl)cc2)c2ccccn2)CC1 (stereo not drawn) [Compound 121, 1-(4-chlorophenyl)-N-((1-(2-(2-fluorophenoxy)ethyl)piperidin-4-yl)methyl)-1-(pyridin-2-yl) methanamine]	> 30	0.1 to 1	0.1 to 1	> 30
Fc1ccc(C(NCC2CCN(CCOc3ccccc3)CC2)c2ccccn2)cc1 (stereo not drawn) [Compound 78, 1-(4-fluorophenyl)-N-((1-(2-phenoxyethyl)piperidin-4-yl)methyl)-1-(pyridin-2-yl)methanamine]	> 30	1 to 10	1 to 10	0.1 to 1
COc1cccc(C(NC(=O)C2CCN(CCOc3ccccc3C(F)(F)F)CC2)c2ccccn2)c1 (stereo not drawn) [Compound 20, N-((3-methoxyphenyl)(pyridin-2-yl)methyl)-1-(2-(2-(trifluoromethyl)phenoxy)ethyl) piperidine-4-carboxamide]	> 30	0.1 to 1	< 0.1	> 30
COc1cccc(C(NC(=O)C2CCN(CCOc3ccc4ncsc4c3)CC2)c2ccccn2)c1 (stereo not drawn) [Compound 82, 1-(2-(benzo[d]thiazol-6-yloxy)ethyl)-N-((3-methoxyphenyl)(pyridin-2-yl)methyl)piperidine-4-carboxamide]	> 30	10 to 30	1 to 10	> 30
FC(F)(F)CN(CC1CCN(CCOc2ccccc2)CC1)C(c1ccc(Cl)cc1)c1ccccn1 (single isomer, unassigned) [Compound 125a, N-((4-chlorophenyl)(pyridin-2-yl)methyl)-2,2,2-trifluoro-N-((1-(2-phenoxyethyl)piperidin-4-yl)methyl)ethanamine]	> 30	1 to 10	> 30	0.1 to 1
CC(C)N(CC1CCN(CCOc2ccccc2F)CC1)C(c1ccc(Cl)cc1)c1ccccn1 (single isomer, unassigned) [Compound 133a, N-((4-chlorophenyl)(pyridin-2-yl)methyl)-N-((1-(2-(2-fluorophenoxy)ethyl)piperidin-4-yl)methyl)propan-2-amine]	> 30	< 0.1	< 0.1	> 30
CC(C)C(NC(=O)C1CCN(CCOc2ccccc2)CC1)c1ccccn1 (stereo not drawn) [Compound 38, N-(2-methyl-1-(pyridin-2-yl)propyl)-1-(2-phenoxyethyl)piperidine-4-carboxamide]	> 30	1 to 10	> 30	1 to 10
CC1(C(=O)NC(c2ccc(F)cc2)c2ccccn2)CCN(CCOc2ccccc2)CC1 (stereo not drawn) [Compound 69, N-((4-fluorophenyl)(pyridin-2-yl)methyl)-4-methyl-1-(2-phenoxyethyl)piperidine-4-carboxamide]	0.1 to 1	0.1 to 1	> 30	< 0.1
FC(F)(F)c1ccccc1OCCN1CCC2(CC1)CCN(C(c1ccc(Cl)cc1)c1ccccn1)C2 (stereo not drawn) [Compound 106, 2-((4-chlorophenyl)(pyridin-2-yl)methyl)-8-(2-(2-(trifluoromethyl)phenoxy)ethyl)-2,8-diazaspiro[4.5]decane]	> 30	0.1 to 1	1 to 10	1 to 10

Second part, the compound after the results:

EC50 (human D2R/β-arrestin [1]) [µM]	IC50 (human D2R/β-arrestin [2]) [µM]	IC50 (human D2R/β-arrestin [3]) [µM]	EC50 (human D2R/β-arrestin [4]) [µM]	Compound
> 30	10 to 30	> 30	1 to 10	O=C(NC(c1ccccn1)c1ccccn1)C1CCN(CCOc2ccccc2)CC1 [Compound 30, N-(di(pyridin-2-yl)methyl)-1-(2-phenoxyethyl)piperidine-4-carboxamide]
> 30	1 to 10	> 30	1 to 10	COc1ccccc1C(NC(=O)C1CCN(CCOc2ccccc2)CC1)c1ccc(Cl)cc1 (stereo not drawn) [Compound 43]
> 30	0.1 to 1	0.1 to 1	> 30	O=C(NC(c1ccc(Cl)cc1)c1ccccn1)C1CCN(CCOc2ccc(F)cc2F)CC1 (single isomer, unassigned) [Compound 115b, N-((4-chlorophenyl)(pyridin-2-yl)methyl)-1-(2-(2,4-difluorophenoxy)ethyl)piperidine-4-carboxamide]
> 30	1 to 10	0.1 to 1	> 30	O=C(NC(c1ccc(Cl)cc1)c1ccccn1)C1CCN(CCCOc2ccccc2)CC1 (stereo not drawn) [Compound 62, N-((4-chlorophenyl)(pyridin-2-yl)methyl)-1-(3-phenoxypropyl)piperidine-4-carboxamide]
> 30	0.1 to 1	0.1 to 1	0.1 to 1	O=C(NC(c1ccc(Cl)cc1)c1ccncc1F)C1CCN(CCOc2ccccc2F)CC1 (stereo not drawn) [Compound 91, N-((4-chlorophenyl)(3-fluoropyridin-4-yl)methyl)-1-(2-(2-fluorophenoxy)ethyl)piperidine-4-carboxamide]
> 30	< 0.1	< 0.1	> 30	O=C(NC(c1ccc(Cl)cc1)c1ccccn1)C1CCN(CCOc2ccccc2OC(F)(F)F)CC1 (stereo not drawn) [Compound 68, N-((4-chlorophenyl)(pyridin-2-yl)methyl)-1-(2-(2-(trifluoromethoxy)phenoxy)ethyl) piperidine-4-carboxamide]
> 30	0.1 to 1	0.1 to 1	> 30	O=C(NC(c1ccccc1F)c1ccccc1F)C1CCN(CCOc2ccccc2Cl)CC1 [Compound 84, N-(bis(2-fluorophenyl)methyl)-1-(2-(2-chlorophenoxy)ethyl)piperidine-4-carboxamide]
> 30	10 to 30	1 to 10	> 30	COCCN1CCC(C(=O)NC(c2ccc(Cl)cc2)c2ccccn2)CC1 (stereo not drawn) [Compound 65, N-((4-chlorophenyl)(pyridin-2-yl)methyl)-1-(2-methoxyethyl)piperidine-4-carboxamide]
